Experimental findings from ChEMBL document CHEMBL4699537, “Chalcones as Modulators of Neutrophil Oxidative Burst under Physiological and High Glucose Conditions” (J Nat Prod, 2020) are described below.

Series [1] deals with Neutrophil. The experiment in a line: Effect on cell viability in human neutrophils assessed as decrease in cell viability at 25 uM after 1 hr by Propidium staining based flow cytometric analysis. In general terms: Flow cytometry measures light scatter and fluorescence of single cells or particles in a stream.
Series [2] can be described thus: Inhibition of PMA-induce ROS/RNS generation in human neutrophils measured up to 30 mins in presence of 30 mM glucose by luminol-amplified chemiluminescence method. The conditions noted are these: Neutrophil, 0.5 h. In kind it is functional, tissue-based.
Series [3] in a line: Inhibition of PMA-induce ROS/RNS generation in human neutrophils measured up to 30 mins in presence of 5.5 mM glucose by luminol-amplified chemiluminescence method. The format is functional, tissue-based. The conditions noted are these: Neutrophil, 0.5 h.
The subject of series [4] is Neutrophil. The experiment in a line: Effect on cell viability in human neutrophils assessed as decrease in cell viability at 50 uM after 1 hr by Propidium staining based flow cytometric analysis.
In series [5] the test system is Neutrophil. Nature of the series: Effect on cell viability in human neutrophils assessed as decrease in cell viability at 100 uM after 1 hr by Propidium staining based flow cytometric analysis.
Series [6] is described as follows: Inhibition of PMA-induce ROS/RNS generation in human neutrophils at 12.5 uM measured up to 30 mins in presence of 30 mM glucose by luminol-amplified chemiluminescence method relative to control. In kind it is functional, Neutrophil. The conditions noted are these: time min <=30.
Series [7] is described as follows: Ratio of IC50 for inhibition of PMA-induce ROS/RNS generation in human neutrophils measured up to 30 mins in presence of 30 mM glucose to IC50 for inhibition of PMA-induce ROS/RNS generation in human neutrophils measured up to 30 mins in presence of 5.5 mM glucose. In kind it is functional, Neutrophil.
In series [8] the test system is Neutrophil. The experiment in a line: Effect on cell viability in human neutrophils assessed as decrease in cell viability at 12.5 uM after 1 hr by Propidium staining based flow cytometric analysis.
Series [9] relates to Neutrophil. Nature of the series: Effect on cell viability in human neutrophils assessed as death cell at 6.3 uM in presence of 5.5 mM glucose after 1 hr by Propidium staining based flow cytometric analysis (reference value: 0.5 +/- 0.07 %).
Series [10] relates to Neutrophil. Nature of the series: Effect on cell viability in human neutrophils assessed as decrease in cell viability at 6.3 uM after 1 hr by Propidium staining based flow cytometric analysis.
Series [11] relates to Neutrophil. The experiment in a line: Effect on cell viability in human neutrophils assessed as death cell at 6.3 uM in presence of 30 mM glucose after 1 hr by Propidium staining based flow cytometric analysis (reference value: 0.8 +/- 0.13 %).
A short description of series [12]: Inhibition of PMA-induce ROS/RNS generation in human neutrophils at 25 uM measured up to 30 mins in presence of 30 mM glucose by luminol-amplified chemiluminescence method relative to control. In kind it is functional, Neutrophil. The note with it: time min <=30.
Series [13] can be described thus: Inhibition of PMA-induce ROS/RNS generation in human neutrophils at 25 uM measured up to 30 mins in presence of 5.5 mM glucose by luminol-amplified chemiluminescence method relative to control. In kind it is functional, Neutrophil. The note with it: time min <=30.
Series [14] can be described thus: Inhibition of PMA-induce ROS/RNS generation in human neutrophils at 12.5 uM measured up to 30 mins in presence of 5.5 mM glucose by luminol-amplified chemiluminescence method relative to control. The format is functional, Neutrophil. The note with it: time min <=30.
Series [15] can be described thus: Inhibition of PMA-induce ROS/RNS generation in human neutrophils at 6.3 uM measured up to 30 mins in presence of 30 mM glucose by luminol-amplified chemiluminescence method relative to control. In kind it is functional, Neutrophil. The conditions noted are these: time min <=30.
Series [16] in a line: Inhibition of PMA-induce ROS/RNS generation in human neutrophils at 6.3 uM measured up to 30 mins in presence of 5.5 mM glucose by luminol-amplified chemiluminescence method relative to control. In kind it is functional, Neutrophil. The note with it: time min <=30.
The test system of series [17] is Neutrophil. Nature of the series: Effect on cell viability in human neutrophils assessed as decrease in cell viability at 3.1 uM after 1 hr by Propidium staining based flow cytometric analysis.
Series [18] is described as follows: Inhibition of PMA-induce ROS/RNS generation in human neutrophils at 3.1 uM measured up to 30 mins in presence of 30 mM glucose by luminol-amplified chemiluminescence method relative to control. The format is functional, Neutrophil. The note with it: time min <=30.
A short description of series [19]: Inhibition of PMA-induce ROS/RNS generation in human neutrophils at 3.1 uM measured up to 30 mins in presence of 5.5 mM glucose by luminol-amplified chemiluminescence method relative to control. In kind it is functional, Neutrophil. The note with it: time min <=30.
Series [20] relates to Neutrophil. The experiment in a line: Inhibition of PMA-induce NET production in human neutrophils incubated for 30 mins in presence of 30 mM glucose by SytoxGreen staining based fluorescence assay. The format is functional, tissue-based.
The nature of series [21]: Inhibition of PMA-induce NET production in human neutrophils at 50 uM incubated for 30 mins in presence of 30 mM glucose by SytoxGreen staining based fluorescence assay relative to control. The format is functional. The conditions noted are these: Neutrophil, 0.5 h.
The test system of series [22] is Neutrophil. Nature of the series: Effect on cell viability in human neutrophils assessed as death cell at 100 uM in presence of 5.5 mM glucose after 1 hr by Propidium staining based flow cytometric analysis (reference value: 0.5 +/- 0.07 %).
In series [23] the test system is Neutrophil. Nature of the series: Effect on cell viability in human neutrophils assessed as death cell at 100 uM in presence of 30 mM glucose after 1 hr by Propidium staining based flow cytometric analysis (reference value: 0.8 +/- 0.13 %).

Take `O=C(/C=C/c1ccccc1O)c1ccccc1O`: the Activity entry with Neutrophil [1] was “Non-Toxic”. The IC50 in series [2] and in [3] was 5.8 µM in each case.

On to `O=C(/C=C/c1ccc(O)cc1)c1ccccc1O`, for which the IC50 in series [2] turned out to be 1.5 µM; in series [3], 1.6 µM. The Activity entry in the series on Neutrophil [4] was “Non-Toxic”.

For `COc1ccc(/C=C/C(=O)c2ccccc2)cc1OC`, the IC50 in [2] turned out to be 20 µM; in series [3], 15 µM. The Activity result in the series with Neutrophil [5] is “Non-Toxic”.

Consider `Cc1cccc(/C=C/C(=O)c2ccccc2O)c1`, for which the Imax in series [6] is 47%. Further, in series [7], the “Ratio IC50” value is reported as 2. Besides, the IC50 in [3] was found to be 2.8 µM. Besides, in the series with Neutrophil [8], the Activity entry was “Non-Toxic”.

Take `O=C(/C=C/c1ccccc1O)c1ccccc1`: the IC50 in series [2] came to 5 µM; in series [3], 6.7 µM. Further, the Activity result in the series on Neutrophil [4] is on record as “Non-Toxic”.

For `COc1cc(/C=C/C(=O)c2ccccc2O)ccc1O`, the values for the Activity in the series on Neutrophil [9], in the series on Neutrophil [10] and in the series with Neutrophil [11] were 0.4%, “Non-Toxic” and 0.4%, respectively. The IC50 was 2 µM in series [2] and 1 µM in [3].

On to `COc1ccc(/C=C/C(=O)c2ccc(O)cc2O)cc1OC`, for which the IC50 came to 7 µM in series [2] and 6.4 µM in [3]. The Activity result with Neutrophil [8] is on record as “Non-Toxic”.

For `O=C(/C=C/c1ccc(O)cc1)c1ccccc1` [4-HYDROXYCHALCONE], the IC50 was 11.6 µM in series [2] and 8.8 µM in [3]. Besides, the Activity result in the series on Neutrophil [4] was “Non-Toxic”.

With `COc1ccc(/C=C/C(=O)c2ccccc2O)cc1`, in the series on Neutrophil [1], the Activity entry is reported as “Non-Toxic”. Further, the Imax is listed as 32% in series [12] and 50% in series [13].

With `O=C(/C=C/c1ccc(O)cc1O)c1ccccc1`, the Activity result in the series with Neutrophil [1] is on record as “Non-Toxic”. For the same molecule, the figures for the IC50 in [2] and in series [3] were 12 µM and 13 µM, respectively.

With `O=C(/C=C/c1ccc(Cl)cc1Cl)c1ccccc1O`, the figures for the Imax in [6] and in series [14] were 28% and 30%, respectively. The Activity entry with Neutrophil [8] was “Non-Toxic”.

For the molecule `COc1ccc(/C=C/C(=O)c2ccccc2O)cc1OC`, the IC50 came to 15 µM in series [2] and 6.4 µM in series [3]. Moreover, the “Ratio IC50” value in series [7] came out at 2. Besides, in the series on Neutrophil [4], the Activity entry is “Non-Toxic”.

In the case of `COc1cc(/C=C/C(=O)c2ccccc2O)cc(OC)c1OC`, the IC50 in series [2] was 3 µM; in series [3], 3.4 µM. Further, the Activity entry with Neutrophil [4] is “Non-Toxic”.

With `COc1ccccc1/C=C/C(=O)c1ccccc1O`, the Imax is 34% in series [15] and 50% in [16]. The Activity entry in the series with Neutrophil [10] is on record as “Non-Toxic”.

On to `O=C(/C=C/c1ccc(Cl)cc1)c1ccccc1` [4-CHLORO CHALCONE], for which the results for the IC50 in series [2] and in series [3] were 5.3 µM and 5.4 µM, respectively. Further, the Activity result in the series on Neutrophil [8] is “Non-Toxic”.

Turning to `COc1cc(O)c(C(=O)/C=C/c2cc(OC)c(OC)c(OC)c2)c(OC)c1`, the values for the Imax in [16] and in series [18] were 25% and 18%, respectively. Also, the Activity result in the series on Neutrophil [17] is reported as “Non-Toxic”.

For the molecule `COc1cc(O)c(C(=O)/C=C/c2ccc(OC)c(OC)c2)c(OC)c1`, the IC50 in series [2] came out at 74 µM; in series [3], 78 µM. Also, the Activity entry in the series on Neutrophil [5] was “Non-Toxic”.

As for `O=C(/C=C/c1cccc(O)c1)c1ccccc1` [3-HYDROXY CHALCONE], the IC50 stood at 22.3 µM in series [2] and 27 µM in [3]. Moreover, the Activity entry with Neutrophil [5] is “Non-Toxic”.

For the molecule `O=C(/C=C/c1ccc(O)cc1O)c1ccc(O)cc1O`, the IC50 in [2] is 3 µM; in series [3] it was 2.9 µM. For the same molecule, in the series on Neutrophil [8], the Activity entry is recorded as “Non-Toxic”.

For `COc1ccc(/C=C/C(=O)c2c(O)cc(OC)cc2OC)cc1` [FLAVOKAWAIN A], the Imax was determined as 13% in series [19] and 19% in series [18]. The Activity entry in the series with Neutrophil [17] is “Non-Toxic”.

Regarding `COc1cccc(/C=C/C(=O)c2ccccc2O)c1`, in the series on Neutrophil [1], the Activity result is “Non-Toxic”. Further, the IC50 in [2] was found to be 5.7 µM; in series [3], 3 µM. Also, the “Ratio IC50” value in series [7] was 2.

On to `COc1ccc(/C=C/C(=O)c2ccc(O)cc2O)cc1`, for which the Imax in [6] is on record as 44%; in [14], 46%. Further, in the series on Neutrophil [8], the Activity result is on record as “Non-Toxic”.

`Cc1cc(C)c(/C=C/C(=O)c2ccccc2O)c(C)c1`: the Imax is given as 26% in series [16] and 25% in series [18]. For the same molecule, the Activity result in the series with Neutrophil [17] is reported as “Non-Toxic”.

On to `O=C(/C=C/c1ccc(O)c(O)c1)c1c(O)cc(O)cc1O` [3,4,2',4',6'-PENTAHYDROXYCHALCONE], for which the inhibition result with Neutrophil [20] is “Dose-dependent effect”. The IC50 in series [2] is 5 µM; in [3], 4.4 µM. In addition, the inhibition at 50 µM in [21] was 48%. The Activity entry in the series on Neutrophil [4] was “Non-Toxic”.

As for `O=C(/C=C/c1ccccc1)c1ccccc1` [CHALCONE], the Activity in the series with Neutrophil [22] is listed as 0.6%; with Neutrophil [23], 5%; in the series on Neutrophil [4], “Non-Toxic”. Further, the IC50 in series [2] turned out to be 27 µM; in series [3] it was 13 µM. For the same molecule, the “Ratio IC50” value in [7] came to 2.

A word on the IC50: it is the midpoint of a concentration-inhibition curve. Usually inhibition stands for the percentage by which the read-out fell short of the control.
